Source: ChEMBL document CHEMBL1201862, “PubChem BioAssay data set” (2004)
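Cultured in 96-well plates, cells were exposed to test compound for 48 hours across five concentrations. At the GI50, growth is halved.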 Active and inactive are the calls of the source. Rule as the data show it: active = GI50 up to about 1.1 µM and inactive = higher.

How the values were obtained:
Experiment in all cases: NCI-60 cell line screen, 48 h
DLD-1 = test system: DLD-1
DMS-273 = test system: DMS-273
HOP-18 = test system: HOP-18
KM-20L2 = test system: KM-20L2
M19-MEL = test system: M19-MEL
SNB-78 = test system: SNB-78
XF498 = test system: XF498
DMS-114 = test system: DMS-114
RXF 631 = test system: RXF 631

| SMILES | GI50 (DLD-1) | GI50 (DMS-273) | GI50 (HOP-18) | GI50 (KM-20L2) | GI50 (M19-MEL) | GI50 (SNB-78) | GI50 (XF498) | GI50 (DMS-114) | GI50 (RXF 631) |
| --- | --- | --- | --- | --- | --- | --- | --- | --- | --- |
| COc1ccc(C2C(Cl)C(=O)N2NC(=O)Cc2ccccc2)cc1 (centres undefined) | > 100 µM (inactive) | > 100 µM (inactive) | > 100 µM (inactive) | > 100 µM (inactive) | > 100 µM (inactive) | > 100 µM (inactive) | > 100 µM (inactive) | – | – |
| O=C(COc1ccc(Cl)cc1)N1N=C(c2ccc(Cl)cc2)CC1(O)c1ccccc1 (centres undefined) | 13 µM (inactive) | 15.9 µM (inactive) | 39.2 µM (inactive) | 15.4 µM (inactive) | 24 µM (inactive) | > 38.5 µM (inactive) | 27.8 µM (inactive) | 18.4 µM (inactive) | – |
| O=C1C2=C(c3ccccc31)C(c1cccc(Cl)c1)NC(S)=N2 (centres undefined) | > 100 µM (inactive) | 80.9 µM (inactive) | – | > 100 µM (inactive) | > 100 µM (inactive) | – | > 100 µM (inactive) | > 100 µM (inactive) | – |
| C[P+](C)(C)C | > 100 µM (inactive) | – | > 100 µM (inactive) | > 100 µM (inactive) | > 100 µM (inactive) | > 100 µM (inactive) | > 100 µM (inactive) | > 100 µM (inactive) | > 100 µM (inactive) |
| CCOc1ccc(/N=N/c2c(-c3ccccc3)nn(C(=O)CC(=O)Nc3cccc(C)c3)c2-c2ccccc2)cc1 | 63.2 µM (inactive) | > 100 µM (inactive) | > 100 µM (inactive) | 85.5 µM (inactive) | – | > 100 µM (inactive) | 95.1 µM (inactive) | 30.4 µM (inactive) | 27.5 µM (inactive) |
| CCCCCCCCCCCCCC(=O)OCC1OC(=O)C(O)C1O (centres undefined) | > 100 µM (inactive) | – | > 100 µM (inactive) | > 100 µM (inactive) | > 100 µM (inactive) | – | > 100 µM (inactive) | > 100 µM (inactive) | – |
| O=C1C=CC(=O)N1Nc1ccc([N+](=O)[O-])cc1[N+](=O)[O-] | > 100 µM (inactive) | > 100 µM (inactive) | – | > 100 µM (inactive) | > 89.7 µM (inactive) | > 100 µM (inactive) | – | > 100 µM (inactive) | – |
| Clc1ccc2c(c1)[nH]c1c2nc2sccn21 | > 100 µM (inactive) | > 100 µM (inactive) | > 100 µM (inactive) | > 100 µM (inactive) | > 100 µM (inactive) | > 100 µM (inactive) | > 100 µM (inactive) | > 100 µM (inactive) | > 100 µM (inactive) |
| CC(C)N(C(=O)C1(C)CC1)C(C)C | > 100 µM (inactive) | > 100 µM (inactive) | > 100 µM (inactive) | > 100 µM (inactive) | > 100 µM (inactive) | > 100 µM (inactive) | > 100 µM (inactive) | > 100 µM (inactive) | > 100 µM (inactive) |
| NC(=S)N/N=C(/CC(=O)c1ccc([N+](=O)[O-])cc1)C(=O)Nc1ncc([N+](=O)[O-])s1 | > 100 µM (inactive) | – | – | > 100 µM (inactive) | > 100 µM (inactive) | > 100 µM (inactive) | > 100 µM (inactive) | 68.1 µM (inactive) | > 100 µM (inactive) |
| O=C(O)c1cc(=O)c2c([nH]c3ccccc32)s1 | > 100 µM (inactive) | – | – | > 100 µM (inactive) | > 100 µM (inactive) | > 100 µM (inactive) | > 100 µM (inactive) | > 100 µM (inactive) | > 100 µM (inactive) |
| COc1cc(OC)cc(C(=O)Cc2c(C(=O)c3ccccc3)c3ccccc3n2C(=O)c2ccccc2)c1 | 20.3 µM (inactive) | 27.4 µM (inactive) | – | 50.6 µM (inactive) | 32 µM (inactive) | 38.3 µM (inactive) | 21.4 µM (inactive) | 15.5 µM (inactive) | – |
| CC(=O)C1C(=O)NC(=O)C1=O (centres undefined) | – | > 100 µM (inactive) | > 100 µM (inactive) | > 100 µM (inactive) | > 100 µM (inactive) | > 100 µM (inactive) | > 100 µM (inactive) | > 100 µM (inactive) | – |
| COC(=O)CC(=O)NCC1=CCC(=O)CC1 | > 100 µM (inactive) | > 100 µM (inactive) | – | – | > 100 µM (inactive) | > 100 µM (inactive) | > 100 µM (inactive) | > 100 µM (inactive) | – |
| Cn1c2c(c3ccccc31)C1C(=O)N(c3ccccc3)C(=O)C1CC2 (centres undefined) | > 303 µM (inactive) | > 303 µM (inactive) | – | > 303 µM (inactive) | – | – | – | > 303 µM (inactive) | > 303 µM (inactive) |
| COc1ccc(CCCN2c3ccccc3Sc3ccccc32)cc1 | > 100 µM (inactive) | 33.5 µM (inactive) | > 100 µM (inactive) | 53.8 µM (inactive) | – | 91.8 µM (inactive) | > 100 µM (inactive) | 28.1 µM (inactive) | – |
| C[N+]1=c2c3cccc4cccc(c(=O)n2CC1)c43 | 16.1 µM (inactive) | 12.4 µM (inactive) | 21.6 µM (inactive) | 15.7 µM (inactive) | 17.3 µM (inactive) | 14.2 µM (inactive) | – | 15.7 µM (inactive) | 24.2 µM (inactive) |
| COc1cc2c3c(c1OC)-c1c(ccc4c1OCO4)CC3(C#N)N(C(=O)c1ccccc1)CC2 (centres undefined) | 52.2 µM (inactive) | 49.7 µM (inactive) | – | > 100 µM (inactive) | 67.6 µM (inactive) | 66.4 µM (inactive) | 23 µM (inactive) | 45.5 µM (inactive) | 49.4 µM (inactive) |
| NS(=O)(=O)c1ccc(NC(=O)COC(=O)c2cccc3c(=O)c4ccccc4[nH]c23)cc1 | 45 µM (inactive) | 37.2 µM (inactive) | 20.1 µM (inactive) | > 100 µM (inactive) | 31.3 µM (inactive) | 17.4 µM (inactive) | – | 18.9 µM (inactive) | 33.1 µM (inactive) |
| C[P+]1(Cc2ccccc2)CCCC1 | > 100 µM (inactive) | > 100 µM (inactive) | 63.7 µM (inactive) | > 100 µM (inactive) | > 100 µM (inactive) | > 100 µM (inactive) | < 0.01 µM (active) | > 100 µM (inactive) | – |
| CC(C)CN(CC(C)C)C(=O)C1CCCC[C@@H]1C(=O)O (some centres undefined) | > 100 µM (inactive) | > 100 µM (inactive) | > 100 µM (inactive) | > 100 µM (inactive) | > 100 µM (inactive) | > 100 µM (inactive) | – | > 100 µM (inactive) | > 100 µM (inactive) |
| Nc1nc(-c2ccccc2)cc(-c2cc(Cl)ccc2O)n1 | 98.2 µM (inactive) | 44.7 µM (inactive) | > 100 µM (inactive) | > 100 µM (inactive) | – | > 100 µM (inactive) | – | 55.6 µM (inactive) | > 100 µM (inactive) |
| CC1=C(C(=O)Nc2ccc([N+](=O)[O-])cc2)C(c2ccco2)C(C(=O)Nc2ccc([N+](=O)[O-])cc2)=C(C)N1 | 9.68 µM (inactive) | – | – | 17.4 µM (inactive) | 13.1 µM (inactive) | 11.9 µM (inactive) | 0.6 µM (active) | 5 µM (inactive) | 35.8 µM (inactive) |
| O=C(/C=C/c1cccc([N+](=O)[O-])c1)c1ccc([N+](=O)[O-])cc1 | > 100 µM (inactive) | > 100 µM (inactive) | – | > 100 µM (inactive) | > 100 µM (inactive) | > 100 µM (inactive) | > 100 µM (inactive) | – | > 100 µM (inactive) |
